These compounds were tested against SOS1-KRas (G12C) (Homo sapiens (Human), UniProt Q07889) (assay: SOS1-KRas (G12C) FRET Assay). Settings: not given.
Assay type: binding

SOS1-KRas (G12C), sequence (Q07889 564-1049, stated change not applied): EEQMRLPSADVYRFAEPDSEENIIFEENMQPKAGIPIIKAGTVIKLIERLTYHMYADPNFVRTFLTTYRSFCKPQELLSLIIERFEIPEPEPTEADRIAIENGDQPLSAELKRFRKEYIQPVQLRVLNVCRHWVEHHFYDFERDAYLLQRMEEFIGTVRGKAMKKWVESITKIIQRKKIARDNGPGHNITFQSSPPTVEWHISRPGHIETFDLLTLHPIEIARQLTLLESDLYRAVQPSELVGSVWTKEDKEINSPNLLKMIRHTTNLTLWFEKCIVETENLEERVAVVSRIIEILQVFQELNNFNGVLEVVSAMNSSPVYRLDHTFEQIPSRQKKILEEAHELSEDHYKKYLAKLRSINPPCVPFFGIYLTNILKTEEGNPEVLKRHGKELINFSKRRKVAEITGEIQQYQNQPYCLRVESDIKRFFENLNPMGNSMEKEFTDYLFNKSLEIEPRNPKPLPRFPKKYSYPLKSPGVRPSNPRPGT

Row | Structure (SMILES) | IC50
1 | C[C@@H](NC(=O)c1cc(N2CC3CC(C2)O3)c(F)cc1NC1CCN(C)CC1)c1cccc(C(F)F)c1F [Example 6, 5-(6-oxa-3-azabicyclo[3.1.1]heptan-3-yl)-N—((R)-1-(3-(difluoromethyl)-2-fluorophenyl)ethyl)-4-fluoro-2-((1-methylpiperidin-4-yl)amino)benzamide] | 88 nM
2 | C[C@@H](NC(=O)c1cc(N2CCOCC2)c(F)cc1NC12CC(N(C)C)(C1)C2)c1cccc(C(F)F)c1F [Example 53, (R)—N-(1-(3-(difluoromethyl)-2-fluorophenyl)ethyl)-2-((3-(dimethylamino)bicyclo[1.1.1]pentan-1-yl)amino)-4-fluoro-5-morpholinobenzamide] | 77.3 nM
3 | C[C@@H](NC(=O)c1cc(-c2ccncc2)c(F)cc1N[C@H]1CN2CCC1CC2)c1cccc(C(F)F)c1F (single isomer, unassigned) [Example 58] | 7.9 nM
4 | C[C@@H](NC(=O)c1cc(N2CCOCC2)c(F)cc1N[C@H]1CN2CCC1CC2)c1cccc(C(F)F)c1F [Example 15, N—((R)-1-(3-(difluoromethyl)-2-fluorophenyl)ethyl)-4-fluoro-5-morpholino-2-(((R)-quinuclidin-3-yl)amino)benzamide] | 12.9 nM

Same assay, conditions: inhibition of SOS1:KRAS interaction; 0.5 nM His10-SOS1 (res. 564-1049), 2.5 nM GST-KRAS (res. 1-169, G12C); 2 hrs at RT

Row | Structure (SMILES) | IC50
5 | C[C@@H](NC(=O)c1cc(N2CCOCC2)c(Cl)cc1N[C@@H]1CN2CCC1CC2)c1cccc(C(F)F)c1F [Example 81, 4-chloro-N—((R)-1-(3-(difluoromethyl)-2-fluorophenyl)ethyl)-5-morpholino-2-(((S)-quinuclidin-3-yl)amino)benzamide] | 12.6 nM
6 | Cc1c(C#N)cccc1[C@@H](C)NC(=O)c1cc(N2CCOCC2)c(F)cc1NC1CCN(C)CC1 [Example 46, (R)—N-(1-(3-cyano-2-methylphenyl)ethyl)-4-fluoro-2-((1-methylpiperidin-4-yl)amino)-5-morpholinobenzamide] | 74.6 nM
7 | C[C@@H](NC(=O)c1cc(N2CCC2)c(F)cc1N[C@H]1CN2CCC1CC2)c1cccc(C(F)F)c1F [Example 29, 5-(azetidin-1-yl)-N—((R)-1-(3-(difluoromethyl)-2-fluorophenyl)ethyl)-4-fluoro-2-(((R)-quinuclidin-3-yl)amino)benzamide] | 205 nM
8 | CNC(=O)c1cc(C(=O)N[C@H](C)c2cccc(C(F)F)c2F)c(NC2CCN(C)CC2)cc1F [Example 73, (R)—N1-(1-(3-(difluoromethyl)-2-fluorophenyl)ethyl)-4-fluoro-N3-methyl-6-((1-methylpiperidin-4-yl)amino)isophthalamide] | 148 nM
9 | C[C@@H](NC(=O)c1cc(N2CCOCC2)c(C(F)F)cc1NC1CCN(C)CC1)c1cccc(C(F)F)c1F [Example 79, (R)-4-(difluoromethyl)-N-(1-(3-(difluoromethyl)-2-fluorophenyl)ethyl)-2-((1-methylpiperidin-4-yl)amino)-5-morpholinobenzamide] | 39.1 nM
10 | CC(=O)N1CCN(c2cc(C(=O)N[C@H](C)c3cccc(C(F)(F)F)c3C)c(NC3CCN(C)CC3)cc2F)CC1 [Example 22, (R)-5-(4-acetylpiperazin-1-yl)-4-fluoro-N-(1-(2-methyl-3-(trifluoromethyl)phenyl)ethyl)-2-((1-methylpiperidin-4-yl)amino)benzamide] | 20.6 nM
11 | COC(=O)c1ccc(NC2CCN(C)CC2)c(C(=O)N[C@H](C)c2cccc(C(F)F)c2F)c1 [Example 78, methyl (R)-3-((1-(3-(difluoromethyl)-2-fluorophenyl)ethyl)carbamoyl)-4-((1-methylpiperidin-4-yl)amino)benzoate] | 230 nM
12 | C[C@@H](NC(=O)c1cc(C(=O)N2CCOCC2)c(F)cc1NC1CCN(C)CC1)c1cccc(C(F)F)c1F [Example 77, (R)—N-(1-(3-(difluoromethyl)-2-fluorophenyl)ethyl)-4-fluoro-2-((1-methylpiperidin-4-yl)amino)-5-(morpholine-4-carbonyl)benzamide] | 240 nM
13 | C[C@@H](NC(=O)c1cc(N2CCOCC2)c(C#N)cc1NC1CCN(C)CC1)c1cccc(C(F)F)c1F [Example 4, (R)-4-cyano-N-(1-(3-(difluoromethyl)-2-fluorophenyl)ethyl)-2-((1-methylpiperidin-4-yl)-amino)-5-morpholinobenzamide] | 15 nM
14 | C[C@@H](NC(=O)c1cc(C23CC(C2)C3)c(F)cc1NC1CCN(C)CC1)c1cccc(C(F)F)c1F [Example 68, (R)-5-(bicyclo[1.1.1]pentan-1-yl)-N-(1-(3-(difluoromethyl)-2-fluorophenyl)ethyl)-4-fluoro-2-((1-methylpiperidin-4-yl)amino)benzamide] | 138 nM
15 | C[C@@H](NC(=O)c1cc(-c2ccncc2F)c(F)cc1NC1CCN(C)CC1)c1cccc(C(F)F)c1F [Example 63, (R)-N-(1-(3-(difluoromethyl)-2-fluorophenyl)ethyl)-4-fluoro-5-(3-fluoropyridin-4-yl)-2-((1-methylpiperidin-4-yl)amino)benzamide] | 14.9 nM
16 | C[C@@H](NC(=O)c1cc(-c2ccncc2)c(F)cc1NC1CCN(C)CC1)c1cccc(C(F)F)c1F [Example 57, (R)—N-(1-(3-(difluoromethyl)-2-fluorophenyl)ethyl)-4-fluoro-2-((1-methylpiperidin-4-yl)amino)-5-(pyridin-4-yl)benzamide] | 9.8 nM
17 | Cc1c([C@@H](C)NC(=O)c2cc(C3CCOCC3)c(F)cc2NC2CCN(C)CC2)cccc1C(F)(F)F [Example 21, (R)-4-fluoro-N-(1-(2-methyl-3-(trifluoromethyl)phenyl)ethyl)-2-((1-methylpiperidin-4-yl)amino)-5-(tetrahydro-2H-pyran-4-yl)benzamide] | 225 nM
18 | C[C@@H](NC(=O)c1cc(N2CCOCC2)c(F)cc1N[C@@H]1[C@@H]2C[C@H]1CN(C)C2)c1cccc(C(F)F)c1F [Example 17, N—((R)-1-(3-(difluoromethyl)-2-fluorophenyl)ethyl)-4-fluoro-2-(((1R,5S,6s)-3-methyl-3-azabicyclo[3.1.1]heptan-6-yl)amino)-5-morpholinobenzamide] | 98.9 nM
19 | C[C@@H](NC(=O)c1cc(-c2ccnnc2)c(F)cc1NC1CCN(C)CC1)c1cccc(C(F)F)c1F [Example 65, (R)-N-(1-(3-(difluoromethyl)-2-fluorophenyl)ethyl)-4-fluoro-2-((1-methylpiperidin-4-yl)amino)-5-(pyridazin-4-yl)benzamide] | 6.9 nM
20 | C[C@@H](NC(=O)c1cc(-c2ccncn2)c(F)cc1NC1CCN(C)CC1)c1cccc(C(F)F)c1F [Example 66, (R)—N-(1-(3-(difluoromethyl)-2-fluorophenyl)ethyl)-4-fluoro-2-((1-methylpiperidin-4-yl)amino)-5-(pyrimidin-4-yl)benzamide] | 34.9 nM
21 | C[C@@H](NC(=O)c1cc(N2CC3CCCC(C2)O3)c(F)cc1NC1CCN(C)CC1)c1cccc(C(F)F)c1F [Example 41, 5-(9-oxa-3-azabicyclo[3.3.1]nonan-3-yl)-N-((R)-1-(3-(difluoromethyl)-2-fluorophenyl)ethyl)-4-fluoro-2-((1-methylpiperidin-4-yl)amino)benzamide] | 33.3 nM
22 | C[C@@H](NC(=O)c1cc(C(=O)N2CCC(F)(F)CC2)c(F)cc1NC1CCN(C)CC1)c1cccc(C(F)F)c1F [Example 74, (R)—N-(1-(3-(difluoromethyl)-2-fluorophenyl)ethyl)-5-(4,4-difluoropiperidine-1-carbonyl)-4-fluoro-2-((1-methylpiperidin-4-yl)amino)benzamide] | 888 nM
